Laboratory results reported in the supplement of paper PMC10307832.

Assays:
Assay in all cases: relative viability (nuclei count vs DMSO), 5 days (fraction); higher = more cells survive
LCLC-97TM1 = tested on: LCLC-97TM1
In short: (§1)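 Lung cancer cell lines were pin-tool dosed in 1536-well plates on the day after seeding, with either a lone drug or a fixed anchor-drug dose plus five library-drug doses (not always all listed) in √10 steps. Nuclei were counted on 4× images after 5 days. Relative viability is the ratio of treated-well to vehicle-well nuclei counts, with each value a median of duplicate plates.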

NCI-H1793 = tested on: NCI-H1793
In short: as §1

NCI-H2087 = tested on: NCI-H2087
In short: as §1

NCI-H1944 = tested on: NCI-H1944
In short: as §1

LCLC-103H = tested on: LCLC-103H
In short: as §1

LXF-289 = tested on: LXF-289
In short: as §1

NCI-H727 = tested on: NCI-H727
In short: as §1

NCI-H1437 = tested on: NCI-H1437
In short: as §1

NCI-H1792 = tested on: NCI-H1792
In short: as §1

HCC-827 = tested on: HCC-827
In short: as §1

NCI-H2405 = tested on: NCI-H2405
In short: as §1

NCI-H2228 = tested on: NCI-H2228
In short: as §1

SK-LU-1 = tested on: SK-LU-1
In short: as §1

RERF-LC-KJ = tested on: RERF-LC-KJ
In short: as §1

NCI-H1395 = tested on: NCI-H1395
In short: as §1

BEN = tested on: BEN
In short: as §1

CAL-12T = tested on: CAL-12T
In short: as §1

NCI-H3122 = tested on: NCI-H3122
In short: as §1

NCI-H647 = tested on: NCI-H647
In short: as §1

201T = tested on: 201T
In short: as §1

NCI-H322M = tested on: NCI-H322M
In short: as §1

Structure (SMILES): CCN(CC)CCCCNc1ncc2cc(-c3cc(OC)cc(OC)c3)c(NC(=O)NC(C)(C)C)nc2n1 + Cc1nc(NC(=O)N2CCC[C@H]2C(N)=O)sc1-c1ccnc(C(C)(C)C(F)(F)F)c1 [Alpelisib] (partner 2 µM)
- relative viability (LCLC-97TM1; first compound 0.03162 µM): 0.265
- relative viability (LCLC-97TM1; first compound 0.1 µM): 0.221
- relative viability (LCLC-97TM1; first compound 0.3162 µM): 0.216
- relative viability (LCLC-97TM1; first compound 1 µM): 0.244
- relative viability (NCI-H1793; first compound 0.01 µM): 0.748
- relative viability (NCI-H1793; first compound 0.1 µM): 0.958
- relative viability (NCI-H1793; first compound 0.3162 µM): 0.716
- relative viability (NCI-H1793; first compound 1 µM): 0.642
- relative viability (NCI-H2087; first compound 0.01 µM): 1.12
- relative viability (NCI-H2087; first compound 0.03162 µM): 1.03
- relative viability (NCI-H2087; first compound 0.1 µM): 1.53
- relative viability (NCI-H2087; first compound 0.3162 µM): 1.23
- relative viability (NCI-H2087; first compound 1 µM): 1.15
- relative viability (NCI-H1944; first compound 0.01 µM): 0.884
- relative viability (NCI-H1944; first compound 0.03162 µM): 0.842
- relative viability (NCI-H1944; first compound 0.1 µM): 0.89
- relative viability (NCI-H1944; first compound 0.3162 µM): 0.95
- relative viability (NCI-H1944; first compound 1 µM): 0.799
- relative viability (LCLC-103H; first compound 0.01 µM): 1.09
- relative viability (LCLC-103H; first compound 0.03162 µM): 0.967
- relative viability (LCLC-103H; first compound 0.1 µM): 0.975
- relative viability (LCLC-103H; first compound 0.3162 µM): 1.01
- relative viability (LCLC-103H; first compound 1 µM): 1.01
- relative viability (LXF-289; first compound 0.01 µM): 1.07
- relative viability (LXF-289; first compound 0.03162 µM): 1.06
- relative viability (LXF-289; first compound 0.1 µM): 1.19
- relative viability (LXF-289; first compound 0.3162 µM): 1.02
- relative viability (LXF-289; first compound 1 µM): 0.971
- relative viability (NCI-H727; first compound 0.01 µM): 0.586
- relative viability (NCI-H727; first compound 0.03162 µM): 0.449
- relative viability (NCI-H727; first compound 0.1 µM): 0.678
- relative viability (NCI-H727; first compound 0.3162 µM): 0.579
- relative viability (NCI-H727; first compound 1 µM): 0.543
- relative viability (NCI-H1437; first compound 0.01 µM): 1.23
- relative viability (NCI-H1437; first compound 0.03162 µM): 0.944
- relative viability (NCI-H1437; first compound 0.1 µM): 1
- relative viability (NCI-H1437; first compound 0.3162 µM): 1.03
- relative viability (NCI-H1437; first compound 1 µM): 0.947
- relative viability (NCI-H1792; first compound 0.01 µM): 0.797
- relative viability (NCI-H1792; first compound 0.03162 µM): 0.674
- relative viability (NCI-H1792; first compound 0.1 µM): 0.51
- relative viability (NCI-H1792; first compound 0.3162 µM): 0.766
- relative viability (NCI-H1792; first compound 1 µM): 0.563
- relative viability (HCC-827; first compound 0.01 µM): 0.968
- relative viability (HCC-827; first compound 0.03162 µM): 0.967
- relative viability (HCC-827; first compound 0.1 µM): 1.02
- relative viability (HCC-827; first compound 0.3162 µM): 1.16
- relative viability (HCC-827; first compound 1 µM): 1.02
- relative viability (NCI-H2405; first compound 0.01 µM): 0.574
- relative viability (NCI-H2405; first compound 0.03162 µM): 0.709
- relative viability (NCI-H2405; first compound 0.1 µM): 0.814
- relative viability (NCI-H2405; first compound 0.3162 µM): 0.862
- relative viability (NCI-H2405; first compound 1 µM): 0.72
- relative viability (NCI-H2228; first compound 0.01 µM): 0.796
- relative viability (NCI-H2228; first compound 0.03162 µM): 0.755
- relative viability (NCI-H2228; first compound 0.1 µM): 0.913
- relative viability (NCI-H2228; first compound 0.3162 µM): 0.672
- relative viability (NCI-H2228; first compound 1 µM): 0.469
- relative viability (SK-LU-1; first compound 0.01 µM): 1.06
- relative viability (SK-LU-1; first compound 0.03162 µM): 1.08
- relative viability (SK-LU-1; first compound 0.1 µM): 1.18
- relative viability (SK-LU-1; first compound 0.3162 µM): 1.21
- relative viability (SK-LU-1; first compound 1 µM): 0.65
- relative viability (RERF-LC-KJ; first compound 0.01 µM): 1.08
- relative viability (RERF-LC-KJ; first compound 0.03162 µM): 0.919
- relative viability (RERF-LC-KJ; first compound 0.1 µM): 0.925
- relative viability (RERF-LC-KJ; first compound 0.3162 µM): 0.951
- relative viability (RERF-LC-KJ; first compound 1 µM): 0.826
- relative viability (NCI-H1395; first compound 0.03162 µM): 1.19
- relative viability (NCI-H1395; first compound 0.1 µM): 1.07
- relative viability (NCI-H1395; first compound 0.3162 µM): 0.802
- relative viability (NCI-H1395; first compound 1 µM): 0.637
- relative viability (BEN; first compound 0.01 µM): 1.17
- relative viability (BEN; first compound 0.03162 µM): 0.891
- relative viability (BEN; first compound 0.1 µM): 0.882
- relative viability (BEN; first compound 0.3162 µM): 1.12
- relative viability (BEN; first compound 1 µM): 0.801
- relative viability (CAL-12T; first compound 0.01 µM): 1.35
- relative viability (CAL-12T; first compound 0.03162 µM): 1.24
- relative viability (CAL-12T; first compound 0.1 µM): 1.14
- relative viability (CAL-12T; first compound 0.3162 µM): 1.49
- relative viability (CAL-12T; first compound 1 µM): 0.902
- relative viability (NCI-H3122; first compound 0.01 µM): 0.941
- relative viability (NCI-H3122; first compound 0.03162 µM): 0.877
- relative viability (NCI-H3122; first compound 0.1 µM): 0.906
- relative viability (NCI-H3122; first compound 0.3162 µM): 0.931
- relative viability (NCI-H3122; first compound 1 µM): 0.824
- relative viability (NCI-H647; first compound 0.01 µM): 1.41
- relative viability (NCI-H647; first compound 0.03162 µM): 1.3
- relative viability (NCI-H647; first compound 0.1 µM): 1.31
- relative viability (NCI-H647; first compound 0.3162 µM): 1.13
- relative viability (NCI-H647; first compound 1 µM): 0.465
- relative viability (201T; first compound 0.01 µM): 1.05
- relative viability (201T; first compound 0.03162 µM): 1.01
- relative viability (201T; first compound 0.1 µM): 1.09
- relative viability (201T; first compound 0.3162 µM): 1.1
- relative viability (201T; first compound 1 µM): 0.97
- relative viability (NCI-H322M; first compound 0.01 µM): 0.822
- relative viability (NCI-H322M; first compound 0.03162 µM): 0.782
- relative viability (NCI-H322M; first compound 0.1 µM): 0.77
- relative viability (NCI-H322M; first compound 0.3162 µM): 1.02
- relative viability (NCI-H322M; first compound 1 µM): 0.75
